Key:
CHO cells = test: optical LID (waveguide grating biosensor) mass redistribution response of adherent CHO cells after compound addition; format: cell-based, Chinese Hamster; details: for ligand-induced mass redistribution signal (total change in response): CHO cells, compound 10 μM, FIGS. 13, 15, 18
Text: Referring to FIG. 3, there is shown a flowchart illustrating the basic steps of a method 300 for monitoring in real time the mass redistribution due to an agonist-induced GPCR activation within living cells 108 using an optical LID biosensor 104 in accordance with the present invention. The method 300 includes the following steps: (a) provide an optical LID biosensor 104 (step 302); (b) place a certain number of living cells 108 in a medium which covers the optical LID biosensor 104 such that the living cells 108 attach onto the surface 110 of the optical LID biosensor 104 (step 304); (c) optionally apply a buffer solution at least once into the cell medium (step 306); (d) apply a solution containing a compound (agonist) into the cell medium (step 308); and (e) interrogate the optical LID biosensor 104 and monitor the time dependent optical response 201 of the living cells 108 cultured on the optical LID biosensor 104 (step 310).
It is known that CHO cells 108 endogenously express beta adrenergic receptors, alpha2-adrenergic receptors, P2Y receptors, as well as beta-arrestin and GRKs. It is also known that muscarinic receptors are endogenously expressed at very low level in the CHO cells 108. In this experiment, approximately ˜5×10^4 CHO cells 108 were placed within each well of a microplate that contained an array of optical LID biosensors 104. The CHO cells 108 were then cultured in 150 μl serum medium for 24 hours to ensure that the CHO cells 108 became adherent to the substrate surface 110.
Since muscarinic receptors are endogenously expressed at very low level in CHO cells 108; oxotremorine M, agonist for muscarinic receptors, served as a control. Each of these agonists was directly applied to a different one of the wells which contained the serum medium. The optical responses were then collected by the optical LID system 100.

[1] = system: CHO cells with stably overexpressed rat muscarinic receptor subtype 1 (M1 CHO); test: optical LID mass redistribution response of CHO cells with stably overexpressed rat muscarinic receptor subtype 1 after compound addition; format: cell-based, Chinese Hamster; details: compound 10 μM, compared with CHO cells, FIGS. 14, 15, 18
Procedure: FIG. 14 a time-dependent LID response of engineered Chinese Hamster Ovary (CHO) cells with over-expressed rat muscarnic receptor subtype 1 (thus this cell line is termed as M1 CHO) before and after compound addition. The compound concentration used is 10 μM for all compounds.

Compound | ligand-induced mass redistribution signal (total change in response) (CHO cells) | ligand-induced mass redistribution signal (total change in response) [1] | agonist-induced time-dependent optical LID response (CHO cells; CHO cells in serum medium, ATP 100 μM, epinephrine 100 μM, clonidine 10 μM, oxotremorine M 10 μM, FIG. 10)
CCNC(=O)[C@H]1O[C@@H](n2cnc3c(N)ncnc32)[C@H](O)[C@@H]1O [NECA] | results in mass redistribution signals | results in mass redistribution signals | 
Clc1cccc(Cl)c1N=C1NCCN1 [clonidine] | induced mass redistribution signals |  | 
C[N+](C)(C)CC#CCN1CCCC1=O [oxotremorine M] |  | significantly larger responses in M1-CHO cells | almost no cell response
Cc1scc2c1N(C(=O)CN1CCN(C)CC1)c1ccccc1NC2=O [telenzepine] |  | not its antagonist (telenzepine) results in significantly larger responses | 
